The source of these data is patent publication US5773423A (priority 1994, dated 1998).

The Ki is the equilibrium dissociation constant of an inhibitor or competing ligand from its target.

The target in test [1] is T1, A1 receptors from rat brain membranes (Rattus norvegicus, UniProt P25099).
T1 construct: Rat cerebral cortical and striatal membranes were prepared; from tissue; host or cells: rat brain (cerebral cortical) membranes
T1 sequence (P25099 1-326): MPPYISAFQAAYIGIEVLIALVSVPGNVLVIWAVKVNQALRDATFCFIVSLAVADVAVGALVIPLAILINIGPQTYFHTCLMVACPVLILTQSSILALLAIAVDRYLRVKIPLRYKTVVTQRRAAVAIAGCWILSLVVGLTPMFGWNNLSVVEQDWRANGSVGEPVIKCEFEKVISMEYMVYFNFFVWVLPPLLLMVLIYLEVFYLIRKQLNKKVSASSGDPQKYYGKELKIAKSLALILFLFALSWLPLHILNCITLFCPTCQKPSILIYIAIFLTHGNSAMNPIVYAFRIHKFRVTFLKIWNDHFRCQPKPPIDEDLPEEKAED
Briefly: biochemical. The settings on record: for Ki: rat brain membranes, displacement of [3H]PIA (or [3H]CHA), read-out: A1 affinity Ki; for inhibition at 100 µM: read-out: A1 percent displacement. Type of test: binding. (In a radioligand displacement assay an active substance lowers the binding of a labelled ligand.)

Test [2] addresses T2, A2 receptors from rat striatal membranes (Rattus norvegicus, UniProt P30543).
T2 construct: Rat cerebral cortical and striatal membranes were prepared; from tissue; host or cells: rat striatal membranes
Kind of test: Radioligand binding at A2 (A2a) receptors, displacement of [3H]CGS 21680 (or [3H]NECA with 50 nM CPA) from rat striatal membranes.

Setting [3] is: rat striatal membranes, displacement of [3H]CGS 21680 (or [3H]NECA + 50 nM CPA), read-out: A2 affinity Ki.
Where [4] appears, read: at 100 μM, read-out: A2 percent displacement.
The mark [5] stands for this setting: read-out: A2 percent displacement.
The mark [6] stands for this setting: read-out: percent displacement of radioligand at A2.

Structures can show the parent of a compound that is named as a salt. Where two headings read alike, the source gives them in different places.

T2 sequence (P30543 whole entry): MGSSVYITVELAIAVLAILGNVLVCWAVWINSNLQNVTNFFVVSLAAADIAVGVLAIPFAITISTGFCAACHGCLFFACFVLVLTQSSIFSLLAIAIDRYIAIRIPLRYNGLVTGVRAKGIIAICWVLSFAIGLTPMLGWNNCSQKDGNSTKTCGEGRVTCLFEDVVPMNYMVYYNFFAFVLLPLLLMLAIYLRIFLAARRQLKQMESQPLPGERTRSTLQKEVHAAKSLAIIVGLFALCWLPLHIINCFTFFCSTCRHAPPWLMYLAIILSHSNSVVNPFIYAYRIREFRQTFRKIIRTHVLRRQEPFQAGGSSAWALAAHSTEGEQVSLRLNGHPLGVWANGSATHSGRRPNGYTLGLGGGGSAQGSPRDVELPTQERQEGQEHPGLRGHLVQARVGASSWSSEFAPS

With `CCNC(=O)[C@H]1O[C@@H](n2cnc3c(NCc4ccccc4OC)ncnc32)[C@H](O)[C@@H]1O` [Compound 65, N^6-(2-methoxybenzyl)-NECA], the inhibition constant (Ki) in test [1] came to 52 ± 5 nM; in test [2] (setting [3]) it was 21 ± 3 nM. Consider `Nc1ncnc2c1ncn2[C@@H]1O[C@H](CO)C[C@H]1O` [Compound 72, 3'-deoxyadenosine, reference compound], for which the inhibition at 100 µM in test [1] (at 100 μM) was 5.8 ± 2.8%; in test [2] (setting [4]), 26.3 ± 3.4%. Consider `CCNC(=O)[C@H]1O[C@@H](n2cnc3c(=N)n(Cc4ccc([N+](=O)[O-])cc4)cnc32)[C@H](O)[C@@H]1O` [Compound 37], for which the values for the Ki in test [1] and in test [2] (setting [3]) were 341 ± 52 nM and 190 ± 52 nM, respectively.

Turning to `CCCn1c(=O)c2c(ncn2[C@@H]2O[C@H](CO)[C@@H](O)[C@H]2O)n(CCC)c1=O` [Compound 118, 1,3-di-n-propylxanthine-7-β-D-ribofuranoside, reference compound], in test [1], the Ki was found to be 15900 nM. The figures for the inhibition at 100 µM in test [2] (setting [5]) and in test [2] (setting [6]) were 32 ± 1.1% and 32%, respectively. With `NC[C@H]1O[C@@H](n2cnc3c(N)ncnc32)[C@H](O)[C@@H]1O` [Compound 74, 5'-deoxy-5'-aminoadenosine, reference compound], the Ki in test [1] came to 42700 nM. As to `CCNC(=O)[C@H]1O[C@@H](n2cnc3c(NCc4cccc(I)c4)ncnc32)[C@H](O)[C@@H]1O` [Compound 60, N^6-(3-iodobenzyl)-NECA], the figures for the Ki in test [1] and in test [2] (setting [3]) were 7.7 ± 0.9 nM and 7.2 ± 0.6 nM, respectively. For `Nc1nc(SCc2ccc([N+](=O)[O-])cc2)c2ncn([C@@H]3O[C@H](CO)[C@@H](O)[C@H]3O)c2n1` [Compound 87, (4-nitrobenzyl)-6-thioguanosine, reference compound], the Ki is 15000 nM in test [1] and 48500 nM in test [2] (setting [3]). As to `OC[C@H]1O[C@@H](n2cnc3c(=S)[nH]cnc32)[C@H](O)[C@@H]1O` [Compound 89, 6-thiopurine riboside, reference compound], the results for the inhibition at 100 µM in test [1] (at 100 μM) and in test [2] (setting [5]) were 61.2 ± 3.9% and 33.6 ± 3.3%, respectively. The like results for `Cn1c(=O)c2[nH]c(Cl)nc2n(C)c1=O` [Compound 132, 8-chloroT, reference compound] were, in that order, 30.2 ± 6.7% and 24.7 ± 3.9%. On to `NC(=O)[C@H]1O[C@@H](n2cnc3c(NCc4ccccc4)ncnc32)[C@H](O)[C@@H]1O` [Compound 39, N^6-benzyl-5'-carboxamidoadenosine], for which the Ki amounted to 580 ± 99 nM in test [1] and 423 ± 46 nM in test [2] (setting [3]).

On to `CCCCn1c(=O)c2c(ncn2[C@@H]2O[C@H](C(N)=O)[C@@H](O)[C@H]2O)n(CCCC)c1=O` [Compound 123, 1,3-di-n-butylxanthine-7-β-D-ribofuronamide], for which the Ki amounted to 2940 nM in test [1] and 59200 nM in test [2] (setting [3]). For the molecule `CCNC(=O)[C@H]1O[C@@H](n2cnc3c(N)[n+]([O-])cnc32)[C@H](O)[C@@H]1O` [Compound 35, adenosine-5'-N-ethyluronamide-N^1-oxide], in test [2] (setting [3]), the Ki was determined as 101 ± 19 nM. In the case of `Cn1cnc2[nH]c(=O)[nH]c(=O)c21` [Compound 101, 7-methylX, reference compound], the inhibition at 100 µM in test [1] (at 100 μM) was 52.3 ± 7.9%; in test [2] (setting [5]), 37.7 ± 4.9%. As for `CCCCCCn1c(=O)c2[nH]cnc2n(CCCCCC)c1=O` [Compound 110, 1,3-dihexylX, reference compound], the Ki in test [1] came to 1260 nM. Besides, the inhibition at 10 µM in test [2] (setting [5]) worked out at 14.3 ± 3%. As for `CNC(=O)[C@H]1O[C@@H](n2cnc3c(NCc4cccc(S(=O)(=O)O)c4)ncnc32)[C@H](O)[C@@H]1O` [Compound 52, N^6-(3-sulfobenzyl)-NMCA triethylammonium salt], the inhibition constant (Ki) in test [1] and in test [2] (setting [3]) was above 10000 nM throughout.

With `Cn1c(=O)c2ncn(C)c2n(C)c1=O` [Compound 113, 1,3,9-trimethylX, reference compound], the inhibition at 100 µM in test [2] (setting [5]) was 14.4 ± 5.7%. In the case of `Nc1ccc(CCNc2ncnc3c2ncn3[C@@H]2O[C@H](CO)[C@@H](O)[C@H]2O)cc1` [APNEA, N^6-2-(4-aminophenyl)ethyladenosine, reference compound], the A1 selectivity in test [1] is recorded as 8 fold. The Ki in test [2] (Table 2, [3H]CGS 21680, rat striatal membranes, read-out: Ki (A2)) was 172 ± 50 nM. Consider `O=C(NC1CC1)[C@H]1O[C@@H](n2cnc3c(NCc4ccccc4)ncnc32)[C@H](O)[C@@H]1O` [Compound 24, N^6-benzyladenosine-5'-N-cyclopropyluronamide], for which, in test [2] (setting [3]), the Ki was 55 ± 6 nM.

Take `CCNC(=O)[C@H]1O[C@@H](n2cnc3c(N[C@H](C)c4ccccc4)ncnc32)[C@H](O)[C@@H]1O` [Compound 55, N^6 -(R-phenylethyl)-NECA]: the Ki in test [1] was determined as 3.2 ± 0.1 nM; in test [2] (setting [3]), 259 ± 15 nM. Regarding `CCNC(=O)[C@H]1O[C@@H](n2cnc3c(NCc4cccc(Cl)c4)ncnc32)[C@H](O)[C@@H]1O` [Compound 58, N^6-(3-chlorobenzyl)adenosine-5'-N-ethyluronamide], the Ki in test [1] stood at 22 ± 3 nM; in test [2] (setting [3]), 19 ± 0.3 nM. As for `CCNC(=O)[C@H]1O[C@@H](n2cnc3c(=N)n(Cc4ccccc4[N+](=O)[O-])cnc32)[C@H](O)[C@@H]1O` [Compound 38, N'-(2-nitrobenzyl)NECA], the Ki in test [1] was 196 ± 52 nM; in test [2] (setting [3]), 83.5 ± 9.5 nM.

For the molecule `CCCCn1c(=O)c2[nH]cnc2n(CCCC)c1=O` [Compound 109, 1,3-di-n-butyl-xanthine, reference compound], the Ki in test [2] (setting [3]) was determined as 2930 nM. Turning to `CCCCn1c(=O)c2c(ncn2[C@@H]2O[C@H](C(N)=O)[C@@H](O)[C@H]2O)n(CCCC)c1=O`, the “A2a affinity decrease vs 1,3-di-n-butylxanthine-7-β-D-ribofuranoside” value in test [2] stood at 2.8 fold. Turning to `Nc1nccc2c1ncn2[C@@H]1O[C@H](CO)[C@@H](O)[C@H]1O` [Compound 32, 3-deazaadenosine, reference compound], the Ki in test [2] (setting [3]) was 59800 nM.

Take `CNC(=O)[C@H]1O[C@@H](n2cnc3c(NCc4cccc(C(F)(F)F)c4)ncnc32)[C@H](O)[C@@H]1O` [Compound 47, N^6-(3-trifluoromethylbenzyl)adenosine-5'-N-methyluronamide]: the inhibition constant (Ki) in test [2] (setting [3]) was found to be 574 ± 49 nM. For `CNC(=O)[C@H]1O[C@@H](n2cnc3c(NCc4cccc([N+](=O)[O-])c4)ncnc32)[C@H](O)[C@@H]1O` [Compound 43, N^6-(3-nitrobenzyl)-NMCA], the Ki in test [2] (setting [3]) is 441 ± 45 nM. On to `O=c1c2[nH]cnc2n(Cc2ccccc2)c(=O)n1Cc1ccccc1` [Compound 111, 1,3-dibenzylX, reference compound], for which the inhibition at 10 µM in test [2] (at 10 μM, read-out: A2 percent displacement) was 3.61 ± 0.94%.

As for `Cn1c(=O)c2c(ncn2CCO)n(C)c1=O` [Compound 116, 7-β-hydroxyethylT, reference compound], in test [2] (setting [3]), the Ki stood at 17400 nM. As for `CNC(=O)[C@H]1O[C@@H](n2cnc3c(NCc4ccc(Cl)cc4)ncnc32)[C@H](O)[C@@H]1O` [Compound 48, N^6-(4-chlorobenzyl)-NMCA], the Ki in test [2] (setting [3]) turned out to be 2730 nM.

With `CCCCCn1c(=O)c2c(ncn2[C@@H]2O[C@H](C(=O)NC)[C@@H](O)[C@H]2O)n(CCCCC)c1=O` [Example 68, N-methyl 1,3-di-n-pentylxanthine-7-β-D-ribofuronamide], in test [2] (setting [6]), the inhibition at 100 µM amounted to 2%. For the molecule `CCCCCC[C@H]([C@H](C)O)n1cnc2c(N)ncnc21` (relative stereo) [Compound 96, erythro-9-(2-hydroxy-3-nonyl)adenine, reference compound], in test [2] (setting [4]), the inhibition at 100 µM stood at 59.6 ± 2.8%. For the molecule `CNC(=O)[C@H]1O[C@@H](n2cnc3c(NCc4ccc(Br)cc4)ncnc32)[C@H](O)[C@@H]1O` [Compound 49, N^6-(4-bromobenzyl)-NMCA], the Ki in test [2] (setting [3]) came out at 2460 nM.

For the molecule `CCCCn1c(=O)c2c(ncn2[C@@H]2O[C@H](C(=O)NC)[C@@H](O)[C@H]2O)n(CCCC)c1=O` [Compound 124, N-methyl 1,3-di-n-butylxanthine-7-β-D-ribofuronamide], the inhibition at 100 µM in test [1] was 30%. Take `CNC(=O)[C@H]1O[C@@H](n2cnc3c(NCc4ccc(N)c(I)c4)ncnc32)[C@H](O)[C@@H]1O` [Compound 51, N^6-(4-amino-3-iodobenzyl)adenosine-5'-N-methyluronamide]: in test [2], the “displacement of radioligand from A2a (in words)” value was “not A1 or A2a receptors”. Also, the inhibition constant Ki in test [2] (setting [3]) came to 316 ± 43 nM. As for `Cn1c(=O)[nH]c(=O)c2[nH]cnc21` [Compound 100, 3-methylX, reference compound], in test [2] (setting [5]), the inhibition at 100 µM amounted to 38 ± 0.9%. Consider `CCNC(=O)[C@H]1O[C@@H](n2cnc3c(N[C@@H](C)c4ccccc4)ncnc32)[C@H](O)[C@@H]1O` [Compound 56, N^6 -(S-phenylethyl)-NECA], for which the Ki in test [2] (setting [3]) was 1650 nM. In the case of `CCCCCCn1c(=O)c2c(ncn2[C@@H]2O[C@H](CO)[C@@H](O)[C@H]2O)n(CCCCCC)c1=O` [Example 64, 1,3-di-n-hexylxanthine-7-β-D-ribofuranoside], in test [2] (setting [6]), the inhibition at 10 µM is 7.8% and the inhibition at 100 µM amounted to 69 ± 2%. Consider `CNC(=O)[C@H]1O[C@@H](n2cnc3c(NCc4cccc(N)c4)ncnc32)[C@H](O)[C@@H]1O` [Compound 44, N^6-(3-aminobenzyl)adenosine-5'-N-methyluronamide], for which the Ki in test [2] (setting [3]) worked out at 794 ± 118 nM. For the molecule `CCCCCCn1c(=O)c2c(ncn2[C@@H]2O[C@H](C(=O)NC)[C@@H](O)[C@H]2O)n(CCCCCC)c1=O` [Example 69, N-methyl 1,3-di-n-hexylxanthine-7-β-D-ribofuronamide], the inhibition at 100 µM in test [2] (Table 4, at 10^-4 M, read-out: percent displacement of radioligand at A2) came to 0%.
